Source: patent US20090304810A1, “Composition and method for enhanced sanitation and oxidation of aqueous systems” (priority 2005, published 2009)
One block for each molecule: values may come before it.

Assays:
planktonic algae = experiment: Algae destruction in outdoor pool; format: cell-based; details: same pool system, opening procedure, 500 lbs
Protocol: In an outdoor 360,000 gallon pool contaminated with planktonic algae, 200 lbs of the cobalt monopersulfate composition comprising 99.3 wt % Potassium monopersulfate, 0.5 wt % Magnesium Carbonate, and 0.2 wt % Cobalt Acetate as previously disclosed was added to the system by broadcasting. 40 pounds of soda ash was added to neutralize excess acidity, and the ORP controller was set at 780 mV.
The ORP was consistently achieving 780 mV with 2.0-2.5 ppm of free chlorine.
For comparison purposes, the same pool system during the opening procedure was treated with 500 lbs of calcium hypochlorite and allowed to circulate for 7 days before obtaining the water clarity and being allowed to open to swimmers.

Catalyst precipitation = format: physicochemical
Protocol: 20 grams of potassium monopersulfate, 0.1 grams cuprous chloride and 80 grams distilled water was added to a 250 ml beaker and mixed on a magnetic stirrer until dissolved. 1 gram of solution was carefully measured and diluted with 99 grams of distilled water. The diluted sample was treated with sodium bisulfite to remove residual monopersulfate, the pH was then adjusted to 7.3 using a diluted solution of sodium hydroxide. The resulting clear solution was tested using a HACH Company Method 8506 bicinchoninate-powder pillow test procedure and a DR-2000 spectrophotometer. The resulting copper level was measured and corrected compensate for the dilution. The final result being 4.9 ppm as Cu.
A second 1-gram sample from the original solution was neutralized with sodium bisulfite, then treated with 2-grams of 0.1 wt % alum solution to achieve approximately 20 ppm as alum in the diluted solution. The pH was adjust with dilute sodium hydroxide to achieve a pH of approximately 7.3, mixed for about 5 minutes, then allowed to settle in a graduated cylinder. 25 ml of clear water was decanted and tested for copper, resulting a value of 0.78 ppm as Cu.

Molecule: [Ca+2].[O-]Cl.[O-]Cl [calcium hypochlorite]
- circulation time before obtaining water clarity (planktonic algae): 7 days

- copper level (Catalyst precipitation; no alum, 1:99 diluted, pH 7.3, monopersulfate removed): 4.9 ppm as Cu
Molecule: [Cl][Cu] [cuprous chloride]

- copper level in decanted clear water (Catalyst precipitation; approximately 20 ppm alum, pH approximately 7.3, mixed about 5 minutes, settled): 0.78 ppm as Cu
Molecule: alum
